Our source for the IC50 values is patent US10106526B2, “Inhibitors of cyclin-dependent kinase 7 (CDK7)” (SYROS PHARMACEUTICALS, INC., priority 2014, dated 2018).

Assay [1] has as its target CDK7/Cyclin H/MAT1 trimeric complex (Homo sapiens, UniProt P50613). Nature of the assay: CDK7 kinase assay, Caliper/LabChip EZ Reader (Biortus Biosciences). The assay is classed as biochemical. The following applies: CDK7/Cyclin H/MAT1 10 nM, ATP 2 mM, FAM-CDK7tide 2 μM, 30 min incubation, read-out: CDK7 Inhibition (IC50). The method, then: Compounds of the invention were further assayed for CDK7 activity at Biortus Biosciences (Jiangyin, Jiangsu Province, P.R. of China) using a CDK7 kinase assay developed with a Caliper/LabChip EZ Reader (Perkin Elmer, Waltham, Mass.). […] The incubation period was chosen such that the total fraction of phosphorylated peptide product produced was <20% for the uninhibited kinase.

The next assay concerns A673 cells. Nature of the assay: Inhibition of proliferation of A673 cells (CyQUANT, 72 hour). The assay is classed as cell-based, human. The following applies: 72 hour proliferation. Summed up: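 Human Ewing's sarcoma A673 cells in DMEM + 10% FBS + 1 mM sodium pyruvate, 37 °C, 5% CO2, exposed to compounds from 4 μM to 126.4 pM (0.5 log dilutions) for 72 h. Proliferation read by CyQUANT; IC50 reported as binned categories.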

Sequence of CDK7/Cyclin H/MAT1 trimeric complex (P50613 whole entry): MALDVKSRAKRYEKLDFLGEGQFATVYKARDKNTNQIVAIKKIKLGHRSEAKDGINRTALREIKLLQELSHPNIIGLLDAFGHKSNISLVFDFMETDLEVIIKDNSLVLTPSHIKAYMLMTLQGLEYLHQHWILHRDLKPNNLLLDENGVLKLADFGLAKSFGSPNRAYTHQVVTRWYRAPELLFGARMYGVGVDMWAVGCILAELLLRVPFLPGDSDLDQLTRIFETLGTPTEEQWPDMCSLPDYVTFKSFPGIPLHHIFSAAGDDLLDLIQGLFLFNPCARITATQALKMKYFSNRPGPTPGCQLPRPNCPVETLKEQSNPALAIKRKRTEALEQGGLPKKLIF
Sequence of CDK7/Cyclin H/MAT1 trimeric complex (P51946 whole entry partner): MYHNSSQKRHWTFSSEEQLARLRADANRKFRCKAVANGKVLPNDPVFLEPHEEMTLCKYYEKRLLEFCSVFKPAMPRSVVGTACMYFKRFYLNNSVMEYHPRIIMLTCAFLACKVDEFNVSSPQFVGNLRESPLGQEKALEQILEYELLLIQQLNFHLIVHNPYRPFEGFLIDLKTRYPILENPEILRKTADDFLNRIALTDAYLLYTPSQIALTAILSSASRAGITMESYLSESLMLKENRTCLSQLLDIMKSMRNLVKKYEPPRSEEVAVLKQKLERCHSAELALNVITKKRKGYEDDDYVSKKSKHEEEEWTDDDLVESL
Sequence of CDK7/Cyclin H/MAT1 trimeric complex (P51948 whole entry partner): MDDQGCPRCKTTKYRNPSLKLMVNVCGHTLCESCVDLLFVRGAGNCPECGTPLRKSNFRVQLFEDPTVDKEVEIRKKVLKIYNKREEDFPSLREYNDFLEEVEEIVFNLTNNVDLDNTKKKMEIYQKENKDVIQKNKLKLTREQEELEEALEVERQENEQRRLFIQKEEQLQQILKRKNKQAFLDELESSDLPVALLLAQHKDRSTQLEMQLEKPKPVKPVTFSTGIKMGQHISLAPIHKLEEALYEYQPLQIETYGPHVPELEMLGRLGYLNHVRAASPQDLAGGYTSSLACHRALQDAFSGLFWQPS

Regarding `C=CC(=O)N1CCN([C@H]2CCC[C@@H](Nc3ncc(Cl)c(-c4c[nH]c5ccc(C)cc45)n3)C2)CC1` [Compound 340, 1-(4-((1S,3R)-3-(5-chloro-4-(5-methyl-1H-indol-3-yl)pyrimidin-2-ylamino)cyclohexyl)piperazin-1-yl)prop-2-en-1-One], the half-inhibitory concentration (IC50) (usually the concentration at which inhibition is half-maximal) in assay [1] was less than 100 nM; in the assay on A673 cells (Homo sapiens), less than 500 nM.

Turning to `C=CC(=O)N1CCN([C@H]2CCC[C@@H](Nc3ncc(Cl)c(-c4nnc5ccccn45)n3)C2)CC1` [Compound 344, 1-(4-((1S,3R)-3-((4-([1,2,4]triazolo[4,3-a]pyridin-3-yl)-5-chloropyrimidin-2-yl)amino)cyclohexyl)piperazin-1-yl)prop-2-en-1-One], the IC50 in assay [1] is less than 100 nM; with A673 cells (Homo sapiens), less than 500 nM.

As to `C=CC(=O)N[C@H]1CCN([C@H]2CCC[C@@H](Nc3ncc(Cl)c(-c4c[nH]c5ccccc45)n3)C2)C1` [Compound 370, N—((S)-1-((1S,3R)-3-((5-chloro-4-(1H-indol-3-yl)pyrimidin-2-yl)amino)cyclohexyl)pyrrolidin-3-yl)acrylamide], the IC50 in assay [1] is less than 100 nM; in the assay with A673 cells (Homo sapiens) it was less than 500 nM.

On to `C=CC(=O)N1CCN([C@H]2CCC[C@@H](Nc3ncc(Cl)c(-c4c[nH]c5ccc(OC)cc45)n3)C2)CC1` [Compound 375, 1-(4-((1S,3R)-3-(5-chloro-4-(5-methoxy-1H-indol-3-yl)pyrimidin-2-ylamino)cyclohexyl)piperazin-1-yl)prop-2-en-1-One], for which the IC50 in assay [1] is more than 1000 nM; in the assay with A673 cells (Homo sapiens), less than 500 nM.

On to `CN(C)C/C=C/C(=O)Nc1ccc(CN(C)[C@H]2CCC[C@@H](Nc3ncc(Cl)c(-c4c[nH]c5ccccc45)n3)C2)nc1` [Compound 377, (E)-N-(6-((((1S,3R)-3-((5-chloro-4-(1H-indol-3-yl)pyrimidin-2-yl)amino)cyclohexyl)(methyl)amino)methyl)pyridin-3-yl)-4-(dimethylamino)but-2-enamide], for which the half-inhibitory concentration (IC50) is less than 100 nM in assay [1] and less than 500 nM in the assay with A673 cells (Homo sapiens).

As for `CN(C)C/C=C/C(=O)N(C)c1ccc(CN[C@H]2CCC[C@@H](Nc3ncc(Cl)c(-c4c[nH]c5ccccc45)n3)C2)nc1` [Compound 390, (E)-N-(6-((((1S,3R)-3-((5-chloro-4-(1H-indol-3-yl)pyrimidin-2-yl)amino)cyclohexyl)amino)methyl)pyridin-3-yl)-4-(dimethylamino)-N-methylbut-2-enamide], the values for the IC50 (in assay [1]; in the assay with A673 cells (Homo sapiens)) were less than 100 nM and less than 500 nM, respectively.

With `CN(C)C/C=C/C(=O)Nc1ccc(C(=O)N[C@@]2(C)CCC[C@@H](Nc3ncc(C(F)(F)F)c(-c4c[nH]c5ccccc45)n3)C2)nc1` [Compound 399, 5-[[(E)-4-(dimethylamino)but-2-enoyl]amino]-N-[(1S,3R)-3-[[4-(1H-indol-3-yl)-5-(trifluoromethyl)pyrimidin-2-yl]amino]-1-methyl-cyclohexyl]pyridine-2-carboxamide], the IC50 was less than 100 nM in assay [1] and less than 500 nM with A673 cells (Homo sapiens).

As for `CN(C)C/C=C/C(=O)Nc1ccc(CN[C@@]2(C)CCC[C@@H](Nc3ncc(C(F)(F)F)c(-c4c[nH]c5ccccc45)n3)C2)nc1` [Compound 403, (E)-4-(dimethylamino)-N-[6-[[[(1S,3R)-3-[[4-(1H-indol-3-yl)-5-(trifluoromethyl)pyrimidin-2-yl]amino]-1-methylcyclohexyl]amino]methyl]-3-pyridyl]but-2-enamide], the results for the concentration for half-maximal inhibition (IC50) (in assay [1]; in the assay on A673 cells (Homo sapiens)) were less than 100 nM and less than 500 nM, respectively.

`CCc1cnc(N[C@@H]2CCC[C@](C)(NC(=O)c3ccc(NC(=O)/C=C/CN(C)C)cn3)C2)nc1-c1c[nH]c2ccccc12` [Compound 407, 5-[[(E)-4-(dimethylamino)but-2-enoyl]amino]-N-[(1S,3R)-3-[[5-ethyl-4-(1H-indol-3-yl)pyrimidin-2-yl]amino]-1-methyl-cyclohexyl]pyridine-2-carboxamide]: the values for the half-maximal inhibitory concentration (IC50) (in assay [1]; in the assay with A673 cells (Homo sapiens)) were less than 100 nM and less than 500 nM, respectively.

As to `C=CC(=O)N1CCN([C@]23CCC[C@](Nc4ncc(Cl)c(-c5c[nH]c6ccccc56)n4)(CC2)C3)CC1` [Compound 408, 1-(4-((1R,5S)-5-(5-Chloro-4-(1H-indol-3-yl)pyrimidin-2-ylamino)bicyclo[3.2.1]octan-1-yl)piperazin-1-yl)prop-2-en-1-One], the IC50 in assay [1] is less than 100 nM; in the assay on A673 cells (Homo sapiens), less than 500 nM.

Turning to `C=CC(=O)N1CCN([C@@]23CCC[C@@](Nc4ncc(Cl)c(-c5c[nH]c6ccccc56)n4)(CC2)C3)CC1` [Compound 409, 1-(4-((1S,5R)-5-(5-chloro-4-(1H-indol-3-yl)pyrimidin-2-ylamino)bicyclo[3.2.1]octan-1-yl)piperazin-1-yl)prop-2-en-1-One], the IC50 in assay [1] was less than 100 nM; in the assay on A673 cells (Homo sapiens), less than 500 nM.

As to `CCc1cnc(N[C@@H]2CCC[C@](C)(NCc3ccc(NC(=O)/C=C/CN(C)C)cn3)C2)nc1-c1c[nH]c2ccccc12` [Compound 411, (E)-4-(dimethylamino)-N-[6-[[[(1S,3R)-3-[[5-ethyl-4-(1H-indol-3-yl)pyrimidin-2-yl]amino]-1-methylcyclohexyl]amino]methyl]-3-pyridyl]but-2-enamide], the 50% inhibitory concentration (IC50) in assay [1] was less than 100 nM; with A673 cells (Homo sapiens) it was less than 500 nM.

Take `CCc1cnc(N[C@@H]2CCC[C@](C)(NC(=O)c3ccc(NC(=O)/C=C/CN(C)C)cn3)C2)nc1-c1c(C)[nH]c2ccccc12` [Compound 412, 5-[[(E)-4-(dimethylamino)but-2-enoyl]amino]-N-[(1S,3R)-3-[[5-ethyl-4-(2-methyl-1H-indol-3-yl)pyrimidin-2-yl]amino]-1-methyl-cyclohexyl]pyridine-2-carboxamide]: the IC50 in assay [1] is 100 to 1000 nM; in the assay with A673 cells (Homo sapiens) it was less than 500 nM.

Consider `CCc1cnc(N[C@@H]2CCC[C@](C)(NCc3ccc(NC(=O)/C=C/CN(C)C)cn3)C2)nc1-c1n[nH]c2ccccc12` [Compound 413, (E)-4-(dimethylamino)-N-[6-[[[(1S,3R)-3-[[5-ethyl-4-(1H-indazol-3-yl)pyrimidin-2-yl]amino]-1-methyl-cyclohexyl]amino]methyl]-3-pyridyl]but-2-enamide], for which the half-maximal inhibitory concentration (IC50) in assay [1] was less than 100 nM; in the assay with A673 cells (Homo sapiens), less than 500 nM.

In the case of `C=CC(=O)N1CCN([C@H]2CCC[C@@H](Nc3ncc(Cl)c(-c4cnc5ccccn45)n3)C2)CC1` [Compound 414, 1-[4-[(1S,3R)-3-[(5-chloro-4-imidazo[1,2-a]pyridin-3-yl-pyrimidin-2-yl)amino]cyclohexyl]piperazin-1-yl]prop-2-en-1-One], the results for the IC50 (in assay [1]; with A673 cells (Homo sapiens)) were 100 to 1000 nM and less than 500 nM, respectively.

Turning to `CN(C)C/C=C/C(=O)N1CCC[C@@H](NCc2ccc(Nc3ncc(Cl)c(-c4c[nH]c5ccccc45)n3)cc2)C1` [Compound 415, (R,E)-1-(3-((4-((5-chloro-4-(1H-indol-3-yl)pyrimidin-2-yl)amino)benzyl)amino)piperidin-1-yl)-4-(dimethylamino)but-2-en-1-One], the figures for the IC50 (in assay [1]; in the assay with A673 cells (Homo sapiens)) were less than 100 nM and less than 500 nM, respectively.

Regarding `C=CC(=O)N1CCN([C@H]2CCC[C@@H](Nc3ncc(Cl)c(-c4n[nH]c5ccccc45)n3)C2)CC1` [compound 388], the half-maximal inhibitory concentration (IC50) was 100 to 1000 nM in assay [1] and less than 500 nM in the assay with A673 cells.

Take `CN(C)C/C=C/C(=O)N1CCCC(N2CC(Nc3ncc(Cl)c(-c4c[nH]c5ccccc45)n3)C2)C1` (stereo not shown) [compound 389]: the values for the half-maximal inhibitory concentration (IC50) (in assay [1]; in the assay on A673 cells) were more than 1000 nM and less than 500 nM, respectively.

Consider `C=CC(=O)N1CC(F)(F)C[C@H]1C(=O)N[C@H]1CCC[C@@H](Nc2ncc(Cl)c(-c3n[nH]c4ccccc34)n2)C1` [compound 391], for which the values for the IC50 (in assay [1]; in the assay with A673 cells) were less than 100 nM and less than 500 nM, respectively.

For the molecule `C=CC(=O)N1CC(F)(F)C[C@H]1C(=O)N[C@H]1CCC[C@@H](Nc2ncc(C#N)c(-c3c[nH]c4ccccc34)n2)C1` [compound 392], the IC50 in assay [1] was less than 100 nM; in the assay with A673 cells it was less than 500 nM.

Regarding `C=CC(=O)N1CCC[C@@H](NCc2ccc(Nc3ncc(Cl)c(-c4c[nH]c5ccccc45)n3)cc2)C1` [compound 393], the IC50 was less than 100 nM in assay [1] and less than 500 nM in the assay with A673 cells.

As to `CN(C)C/C=C/C(=O)N1CC(F)(F)C[C@H]1C(=O)N[C@H]1CCC[C@@H](Nc2ncc(Cl)c(-c3c[nH]c4ccccc34)n2)C1` [compound 394], the results for the IC50 (in assay [1]; in the assay on A673 cells) were less than 100 nM and less than 500 nM, respectively.

Take `C=CC(=O)N1CCN([C@H]2CCC[C@@H](Nc3ncc(Cl)c(-c4c[nH]c5c(OC)cccc45)n3)C2)CC1` [compound 395]: the results for the IC50 (in assay [1]; in the assay on A673 cells) were 100 to 1000 nM and less than 500 nM, respectively.

Consider `CN(C)C/C=C/C(=O)N1CC(F)(F)C[C@H]1C(=O)N[C@H]1CCC[C@@H](Nc2ncc(C#N)c(-c3c[nH]c4ccccc34)n2)C1` [compound 396], for which the concentration for half-maximal inhibition (IC50) in assay [1] was less than 100 nM; in the assay with A673 cells it was less than 500 nM.

`CN(C)C/C=C/C(=O)N1CCN([C@H]2CCC[C@@H](Nc3ncc(Cl)c(-c4cnc5ccccn45)n3)C2)CC1` [compound 400]: the 50% inhibitory concentration (IC50) was less than 100 nM in assay [1] and less than 500 nM in the assay on A673 cells.

As for `C=C(F)C(=O)N1CCN([C@H]2CCC[C@@H](Nc3ncc(Cl)c(-c4c[nH]c5ccccc45)n3)C2)CC1` [compound 401], the concentration for half-maximal inhibition (IC50) in assay [1] was less than 100 nM; with A673 cells, less than 500 nM.

As for `C=C(F)C(=O)Nc1ccc(C(=O)N[C@H]2CCC[C@@H](Nc3ncc(Cl)c(-c4c[nH]c5ccccc45)n3)C2)nc1` [compound 402], the half-inhibitory concentration (IC50) is 100 to 1000 nM in assay [1] and less than 500 nM in the assay with A673 cells.

`CN(C)C/C=C/C(=O)N1CC(F)(F)C[C@H]1C(=O)N[C@H]1CCC[C@@H](Nc2ncc(Cl)c(-c3n[nH]c4ccccc34)n2)C1` [compound 404]: the IC50 is less than 100 nM in assay [1] and less than 500 nM with A673 cells.

For the molecule `C=CC(=O)Nc1cnc(CN[C@H]2CCC[C@@H](Nc3ncc(Cl)c(-c4n[nH]c5ccccc45)n3)C2)nc1` [compound 405], the concentration for half-maximal inhibition (IC50) was less than 100 nM in assay [1] and less than 500 nM in the assay with A673 cells.
